These results are taken from patent publication US9790218B2, “Small molecule activators of calcium-activated chloride channels and methods of use” (The Regents of the University of California, priority 2011, dated 2017).

“And” between values parts separate entries of the source, which are not always exact repeats. Identical values can stand only once.

In this assay the target is T1, TMEM16A (Homo sapiens, UniProt Q5XXA6, DEL476-501).
T1 construct: expressed in transfected cells
T1 sequence (Q5XXA6 with tags, fused parts or gaps isoform Q5XXA6-5 DEL539-564): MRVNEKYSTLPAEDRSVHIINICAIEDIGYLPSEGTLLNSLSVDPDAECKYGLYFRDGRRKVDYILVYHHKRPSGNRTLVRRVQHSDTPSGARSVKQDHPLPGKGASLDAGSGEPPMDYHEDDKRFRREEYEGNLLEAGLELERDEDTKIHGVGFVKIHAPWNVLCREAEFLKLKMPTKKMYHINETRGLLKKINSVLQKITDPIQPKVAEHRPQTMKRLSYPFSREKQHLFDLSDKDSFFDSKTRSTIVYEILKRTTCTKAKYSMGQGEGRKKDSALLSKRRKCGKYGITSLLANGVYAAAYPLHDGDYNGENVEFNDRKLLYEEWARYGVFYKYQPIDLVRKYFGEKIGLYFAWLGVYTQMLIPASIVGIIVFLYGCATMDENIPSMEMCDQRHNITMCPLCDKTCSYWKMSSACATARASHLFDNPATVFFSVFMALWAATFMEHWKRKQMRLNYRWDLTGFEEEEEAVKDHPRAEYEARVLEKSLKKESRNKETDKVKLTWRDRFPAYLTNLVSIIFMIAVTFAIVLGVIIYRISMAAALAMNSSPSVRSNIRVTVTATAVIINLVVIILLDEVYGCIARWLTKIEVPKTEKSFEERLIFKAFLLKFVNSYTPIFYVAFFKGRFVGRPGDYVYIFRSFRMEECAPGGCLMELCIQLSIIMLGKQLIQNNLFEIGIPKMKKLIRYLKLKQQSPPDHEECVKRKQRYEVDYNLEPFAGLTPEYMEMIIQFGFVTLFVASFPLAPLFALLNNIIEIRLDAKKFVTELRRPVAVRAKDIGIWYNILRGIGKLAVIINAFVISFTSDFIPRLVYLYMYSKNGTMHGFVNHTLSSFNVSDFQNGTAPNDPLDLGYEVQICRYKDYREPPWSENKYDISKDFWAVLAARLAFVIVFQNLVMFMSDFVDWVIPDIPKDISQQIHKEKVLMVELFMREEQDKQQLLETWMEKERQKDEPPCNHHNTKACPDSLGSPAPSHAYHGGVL
Briefly: Apical membrane current in TMEM16A-expressing FRT cells. The assay is classed as cell-based. The protocol:
FRT cells were stably transfected with human TMEM16A (TMEM16A(abc), cDNA provided by Dr. Luis Galietta, Gaslini Institute, Genoa, Italy) and the halide sensor YFP-H148Q/1152L/F46L. Cells were plated in 96-well black-walled microplates (Corning Inc., Corning, N.Y.) at a density of 20,000 cells per well in Coon's modified F12 medium supplemented with 5% fetal calf serum, 2 mM L-glutamine, 100 U/mL penicillin and 100 μg/mL streptomycin. The human submandibular cell line A253 (ATCC HTB 41) was cultured in complete McCoy's 5A medium supplemented with 10% fetal bovine serum, 100 U/mL penicillin and 100 μg/mL streptomycin.
Snapwell inserts containing TMEM16A-expressing FRT, HBE, CF HBE or HTG cells were mounted in Ussing chambers (Physiologic Instruments, San Diego, Calif.). Amiloride, CFTRinh-172, UTP, ATP, T16Ainh-A01 and TMEM16A activators were added to the apical solution and an equal volume of vehicle was added at the same time to the basolateral solution. Symmetrical HCO3^−-buffered solutions were used for HBE, CF HBE and HTG cells. For FRT cells, the hemichambers were filled with a half-Cl^− solution (apical) and the HCO3^−-buffered solution (basolateral), and the basolateral membrane was permeabilized with 250 μg/mL amphotericin B, as described (Namkung et al. (2010), supra). Cells were bathed for a 10 min stabilization period and aerated with 95% O2/5% CO2 at 37° C. or room temperature. Apical membrane current (for FRT cells) and short-circuit current were measured using an EVC4000 Multi-Channel V/I Clamp (World Precision Instruments, Sarasota, Fla.) and recorded using PowerLab/8sp (AD Instruments, Castle Hill, Australia).
The current increase was sustained for >10 min (FIG. 2B, inset). […] Data are also shown for a second Fact compound (Fact9, see Table 1) in FIG. 9.

As a reminder, the EC50 is the concentration that produces a half-maximal response. On to `O=C(Nc1ccc(Br)cc1)c1cccc(-n2cnnn2)c1` [Fact, N-(4-bromophenyl)-3-(1H-tetrazol-1-yl)benzamide], for which the “TMEM16A current following 1 μM Eact (synergy)” value (1-3 μM Fact after 1 μM Eact) is given as “greatly increased TMEM16A current”. For the same compound, for the setting “1-3 μM Fact alone”, the TMEM16A activation alone entry was “little TMEM16A activation”. Further, the EC50 (EC50 from concentration-activation data, apical membrane current) was 3 to 6 µM and ~6 µM. In addition, the “maximal TMEM16A activation compared to ATP effect” value (apical membrane current) is listed as “maximal TMEM16A activation”. Also, the “Cl^− current (apical membrane current)” value (basolateral membrane permeabilized, Cl^− gradient, ATP 100 μM) was “large, concentration-dependent increases in Cl^− current”.

As to `CCc1c(C)nc(SCC(=O)Nc2nc(-c3ccc(OC)cc3)cs2)[nH]c1=O` [T16Ainh-A01, reference compound], where the note is “T16Ainh-A01 10 μM”, the “inhibition of Eact- and Fact-induced Cl^− current” value is given as “inhibited”.
